Test results as given in BigSolDB 2.1.

NS(=O)(=O)c1ccccc1
Details | solubility (mole fraction)
in acetone, 273.15 K | 0.117
in acetone, 279.15 K | 0.123
in acetone, 283.45 K | 0.13
in acetone, 288.95 K | 0.138
in acetone, 293.25 K | 0.145
in acetone, 298.85 K | 0.156
in acetone, 303.15 K | 0.165
in acetone, 308.15 K | 0.176
in acetone, 313.15 K | 0.188
in acetone, 317.65 K | 0.201
in acetone, 323.15 K | 0.217
in acetonitrile, 273.15 K | 0.0348
in acetonitrile, 279.15 K | 0.0396
in acetonitrile, 283.45 K | 0.0446
in acetonitrile, 288.95 K | 0.0507
in acetonitrile, 293.25 K | 0.0568
in acetonitrile, 298.85 K | 0.0649
in acetonitrile, 303.15 K | 0.0723
in acetonitrile, 308.15 K | 0.0817
in acetonitrile, 313.15 K | 0.0928
in acetonitrile, 317.65 K | 0.104
in acetonitrile, 323.15 K | 0.118
in cyclohexanone, 273.15 K | 0.114
in cyclohexanone, 279.15 K | 0.12
in cyclohexanone, 283.85 K | 0.126
in cyclohexanone, 289.15 K | 0.134
in cyclohexanone, 293.75 K | 0.142
in cyclohexanone, 299.15 K | 0.151
in cyclohexanone, 303.75 K | 0.161
in cyclohexanone, 309.15 K | 0.171
in cyclohexanone, 313.35 K | 0.181
in cyclohexanone, 319.15 K | 0.195
in cyclohexanone, 324.45 K | 0.21
in cyclopentanone, 273.15 K | 0.14
in cyclopentanone, 279.15 K | 0.146
in cyclopentanone, 283.85 K | 0.152
in cyclopentanone, 289.15 K | 0.16
in cyclopentanone, 293.75 K | 0.167
in cyclopentanone, 299.15 K | 0.177
in cyclopentanone, 303.75 K | 0.187
in cyclopentanone, 309.15 K | 0.201
in cyclopentanone, 313.35 K | 0.21
in cyclopentanone, 319.15 K | 0.228
in cyclopentanone, 324.45 K | 0.245
in dichloromethane, 273.15 K | 0.00134
in dichloromethane, 279.15 K | 0.00175
in dichloromethane, 283.45 K | 0.00214
in dichloromethane, 288.95 K | 0.00278
in dichloromethane, 293.25 K | 0.00335
in dichloromethane, 298.85 K | 0.00424
in dichloromethane, 303.15 K | 0.00495
in dichloromethane, 308.15 K | 0.00602
in dichloromethane, 312.15 K | 0.00691
in ethanol, 273.15 K | 0.0159
in ethanol, 279.15 K | 0.0182
in ethanol, 283.45 K | 0.0199
in ethanol, 288.95 K | 0.0231
in ethanol, 293.25 K | 0.0261
in ethanol, 298.85 K | 0.0307
in ethanol, 303.15 K | 0.0355
in ethanol, 308.15 K | 0.041
in ethanol, 313.15 K | 0.048
in ethanol, 317.65 K | 0.0547
in ethanol, 323.15 K | 0.0635
in ethyl acetate, 273.15 K | 0.0325
in ethyl acetate, 279.15 K | 0.036
in ethyl acetate, 283.45 K | 0.0389
in ethyl acetate, 288.95 K | 0.0429
in ethyl acetate, 293.25 K | 0.0467
in ethyl acetate, 298.85 K | 0.0517
in ethyl acetate, 303.15 K | 0.0563
in ethyl acetate, 308.15 K | 0.0615
in ethyl acetate, 313.15 K | 0.0682
in ethyl acetate, 317.65 K | 0.0736
in ethyl acetate, 323.15 K | 0.082
in ethyl formate, 273.15 K | 0.018
in ethyl formate, 279.15 K | 0.0204
in ethyl formate, 283.45 K | 0.0228
in ethyl formate, 288.95 K | 0.026
in ethyl formate, 293.25 K | 0.0289
in ethyl formate, 298.85 K | 0.0327
in ethyl formate, 303.15 K | 0.0367
in ethyl formate, 308.15 K | 0.0416
in ethyl formate, 313.15 K | 0.047
in ethyl formate, 317.65 K | 0.0526
in ethyl formate, 323.15 K | 0.0596
in isobutanol, 273.15 K | 0.00387
in isobutanol, 279.15 K | 0.0045
in isobutanol, 283.85 K | 0.00537
in isobutanol, 289.15 K | 0.00666
in isobutanol, 293.75 K | 0.00808
in isobutanol, 299.15 K | 0.00996
in isobutanol, 303.75 K | 0.012
in isobutanol, 309.15 K | 0.0148
in isobutanol, 313.35 K | 0.0176
in isobutanol, 319.15 K | 0.0214
in isobutanol, 324.45 K | 0.0255
in isopentanol, 273.15 K | 0.00419
in isopentanol, 279.15 K | 0.00488
in isopentanol, 283.85 K | 0.00557
in isopentanol, 289.15 K | 0.00683
in isopentanol, 293.75 K | 0.00804
in isopentanol, 299.15 K | 0.00999
in isopentanol, 303.75 K | 0.0119
in isopentanol, 309.15 K | 0.0148
in isopentanol, 313.35 K | 0.0172
in isopentanol, 319.15 K | 0.021
in isopentanol, 324.45 K | 0.0249
in isopropanol, 273.15 K | 0.0076
in isopropanol, 279.15 K | 0.00834
in isopropanol, 283.85 K | 0.00964
in isopropanol, 289.15 K | 0.0119
in isopropanol, 293.75 K | 0.0141
in isopropanol, 299.15 K | 0.0172
in isopropanol, 303.75 K | 0.0213
in isopropanol, 309.15 K | 0.0261
in isopropanol, 313.35 K | 0.0305
in isopropanol, 319.15 K | 0.0371
in isopropanol, 324.45 K | 0.0444
in methanol, 273.15 K | 0.0295
in methanol, 279.15 K | 0.0325
in methanol, 283.45 K | 0.0357
in methanol, 288.95 K | 0.041
in methanol, 293.25 K | 0.046
in methanol, 298.85 K | 0.0536
in methanol, 303.15 K | 0.061
in methanol, 308.15 K | 0.0699
in methanol, 313.15 K | 0.0808
in methanol, 317.65 K | 0.0923
in methanol, 323.15 K | 0.107
in methyl acetate, 273.15 K | 0.0423
in methyl acetate, 279.15 K | 0.0467
in methyl acetate, 283.45 K | 0.0503
in methyl acetate, 288.95 K | 0.0556
in methyl acetate, 293.25 K | 0.0606
in methyl acetate, 298.85 K | 0.0677
in methyl acetate, 303.15 K | 0.0743
in methyl acetate, 308.15 K | 0.0823
in methyl acetate, 313.15 K | 0.0915
in methyl acetate, 317.65 K | 0.101
in methyl acetate, 323.15 K | 0.113
in n-butanol, 273.15 K | 0.00578
in n-butanol, 279.15 K | 0.00679
in n-butanol, 283.85 K | 0.00798
in n-butanol, 289.15 K | 0.00946
in n-butanol, 293.75 K | 0.011
in n-butanol, 299.15 K | 0.0135
in n-butanol, 303.75 K | 0.016
in n-butanol, 309.15 K | 0.0195
in n-butanol, 313.35 K | 0.0226
in n-butanol, 319.15 K | 0.0276
in n-butanol, 324.45 K | 0.0323
in n-pentanol, 273.15 K | 0.00474
in n-pentanol, 279.15 K | 0.00538
in n-pentanol, 283.85 K | 0.00616
in n-pentanol, 289.15 K | 0.00727
in n-pentanol, 293.75 K | 0.00894
in n-pentanol, 299.15 K | 0.0111
in n-pentanol, 303.75 K | 0.0131
in n-pentanol, 309.15 K | 0.0164
in n-pentanol, 313.35 K | 0.0188
in n-pentanol, 319.15 K | 0.0232
in n-pentanol, 324.45 K | 0.0278
in n-propanol, 273.15 K | 0.00806
in n-propanol, 279.15 K | 0.00907
in n-propanol, 283.85 K | 0.0103
in n-propanol, 289.15 K | 0.0122
in n-propanol, 293.75 K | 0.0143
in n-propanol, 299.15 K | 0.0175
in n-propanol, 303.75 K | 0.0208
in n-propanol, 309.15 K | 0.0254
in n-propanol, 313.35 K | 0.0293
in n-propanol, 319.15 K | 0.036
in n-propanol, 324.45 K | 0.0423
